{"source": "patent US20240041838A1", "about": "“METHODS AND COMPOSITIONS FOR INHIBITION OF NEUTROPHIL RECRUITMENT IN MYCOCARDIAL ISCHEMIA-REPERFUSION INJURY” (University of Connecticut, priority 2022, published 2024)", "key": {"[1]": {"system": "Rac-1 activation in HL60-CXCR2 or HL60 cells", "assay": "Rac-1-GTP pull-down and western blot in HL60 / HL60-CXCR2 cells", "assay_type": "cell-based", "details": "10 μM, RT 1 hour", "method": "The HL60 cells and CXCR2-expressing HL60 cells (HL60-CXCR2)(50) were gifts from Dr. Orion D. Weiner at the University of California San Francisco and Dr. Ann Richmond at the Vanderbilt University School of Medicine, respectively. HL60-CXCR2 cells were selected with G418 ([…]) to maintain CXCR2 expression. Cells were maintained in culture medium (RPMI-1640, 10% FBS, 100 μg·mL^−1 penicillin, 100 μg·mL^−1 streptomycin, and 250 ng·mL^−1 amphotericin B) at 37° C. and 5% CO2. In most experiments, cells were differentiated with 1.3% DMSO for 7 days before assays. Cells were checked monthly for mycoplasma infection using the e-Myco plus Mycoplasma PCR Detection Kit.\nAfter washes, cells were resuspended in RPMI-1640 without phenol red (10^7 cells·mL^−1) and incubated with or without stimulators (100 nM fMLP for HL60, 1 μg·mL^−1 IL-8 for HL60-CXCR2) at RT for 1 minute. Cells were lysed by 1:1 addition of 2× Triton X-100 lysis buffer (final concentration: 1% Triton X-100, 50 mM HEPES pH 7.0, 150 mM NaCl, 10% glycerol, 1.5 mM MgCl2, 1 mM EGTA, 1 mM sodium orthovanadate, 1 mM phenylmethylsulfonyl fluoride, plus protease inhibitor mixture—one Pierce protease inhibitor mini-tablet per 5 mL 2× buffer) on ice for 5 minutes. After centrifuging at 16,000×g, 4° C. for 8 minutes, supernatants were saved as protein samples."}, "[2]": {"assay": "pharmacokinetics after i.p. injection in mice", "assay_type": "in vivo, mouse", "details": "plasma", "method": "Pharmacokinetics was performed through a service provided by the Shanghai Institute of Materia Medica. […] Blood samples (20 μL) were collected at 3 min, 15 min, 45 min, 2 h, 4 h, 8 h, and 24 h through femoral vein phlebotomy. 200 μL of methanol:acetonitrile (1:1, v/v) with internal standard was added to […] of plasma and vortexed thoroughly. After centrifuging at 11000 rpm, RT for 5 min, 20 μL of the supernatant was collected and mixed with 20 μL of water for analysis. Samples were analyzed by a TQ-S triple quadrupole mass spectrometer (Waters, Milford, MA, USA). An Acquity Uplc Beh C18 Column (1.7 μm, 2.0 mm×50 mm, Waters) was used for the analysis. Gradient elution was applied consisting of 5 mM […] containing 0.1% formic acid and methanol:acetonitrile (1/9, v/v) containing 0.1% formic acid."}, "[3]": {"system": "LPS-induced systemic inflammation / acute lung injury", "details": "reported, cited from earlier work"}, "[4]": {"system": "β2 integrins on human neutrophils", "assay": "flow cytometry of β2 integrin activation and exocytosis (mAb24, KIM127, TS1/18) after IL-8", "assay_type": "cell-based", "details": "for inhibition at 10 µM: Homo sapiens, Neutrophil", "method": "To monitor the dynamics of β2 integrin activation, 400 μL of 2.5×10^5 cells·mL^−1 neutrophils were assessed by an LSRII analyzer (BD Biosciences, San Jose, CA) for 10 s. After adding 0.5 μg·mL^−1 AF488-conjugated mAb24 and DL550-conjugated KIM127 (final concentration), cells were put back into the analyzer for another 5 minutes. Then, after adding 1 μg·mL^−1 IL-8, cells were put back into the analyzer for another 10 minutes. The curves showing the dynamics of integrin activation (FIGS. 2A, 2B) were generated by FlowJo software (version 10.6). The antibody specificities were validated in our previous study using β2 integrin knockout cells and β2-integrin-activation-deficient talin-1 knockout cells. Compensations were performed before all experiments.\nTo quantify the percentage of mAb24 and KIM127 epitopes and assess inhibition of β2 integrin exocytosis, pan-CD18 […] TS1/18, which has the same isotype (mouse IgG1) as mAb24 and KIM127, was used. […] Neutrophils were mixed with unconjugated mAb24 (1 μg·mL^−1), KIM127 (1 μg·mL^−1), […] (1 μg·mL^−1), or mouse IgG1 isotype control (1 μg·mL^−1), and incubated with 1 μg·mL^−1 IL-8 at RT for 10 min. After incubation, neutrophils were fixed by 1% PFA at 4° C. for 10 min. After two washes with PBS, cells were incubated with APC-conjugated rat anti-mouse IgG1 secondary mAb (1 μg·mL^−1) at RT for 10 min. After two washes with PBS, cell fluorescence was assessed with an LSRII (BD Biosciences, San Jose, CA) and analyzed with FlowJo software (version 10.6). The quantifications of mAb24, KIM127, TS1/18, and isotype mean fluorescence intensities (MFI) (FIGS. 2C-2E) were analyzed by FlowJo software (version 10.6) and obtained from six replicates. MFI of isotype controls was subtracted as background signal. Since mAb24, KIM127, and TS1/18 are all IgG1 isotypes and we used the same secondary antibody, the percentage of high-affinity and extended β2 integrins (FIGS. 2F and 2G) can be calculated by dividing the MFI of mAb24 and KIM127 by the MFI of TS1/18."}}, "note": "“And” between values parts separate entries of the source, which are not always exact repeats. Identical values can stand only once. Like-named read-outs stand apart in the source and are kept apart here."}
{"smiles": "CC(C)(C)C(=O)/C(=C\\c1cccc([N+](=O)[O-])c1)n1cncn1", "note": "[Nexinhib20, 4,4-dimethyl-1-(3-nitrophenyl)-2-(1H-1,2,4-triazol-1-yl)-1-penten-3-one]", "values": [{"measurement": "IL-8-induced increase of Rac-1-GTP", "setting": "[1]; HL60-CXCR2 cells, IL-8 1 μg·mL^−1, 1 minute, increase about 80% without drug", "value": "eliminated these increases"}, {"measurement": "fMLP-induced increase of Rac-1-GTP", "setting": "[1]; HL60 cells, fMLP 100 nM, 1 minute, increase about 50% without drug", "value": "eliminated these increases"}, {"measurement": "concentration at 4 h", "setting": "[2]; male, mouse, ip, 0.8 μmol per mouse, 4 h", "value": "< 28800 ng/mL and < 96 nM"}, {"measurement": "half-life", "setting": "[2]; male, mouse, ip, 0.8 μmol per mouse, one phase exponential decay fit, 95% CI", "value": "11.5 to 16.3", "unit": "min"}, {"measurement": "time within which Nexinhib20 was degraded", "setting": "[2]", "value": "≤ 2", "unit": "h"}, {"measurement": "recruitment of neutrophils to the liver and kidney", "setting": "[3]; LPS-induced systemic inflammation model", "value": "inhibit recruitment of neutrophils"}, {"measurement": "recruitment of neutrophils to lung lumen and parenchyma", "setting": "[3]; acute LPS-induced lung injury mouse model", "value": "inhibit recruitment of neutrophils"}, {"measurement": "β2 integrin exocytosis (total CD18 surface expression, TS1/18)", "setting": "[4]; 10 μM, RT 1 hour, 10 min 1 μg·mL^−1 IL-8", "value": "inhibited significantly"}, {"measurement": "percentage of high-affinity β2 integrins (mAb24 MFI/TS1/18 MFI)", "setting": "[4]; 10 μM, 10 min after IL-8", "value": "reduced the percentage of high-affinity"}, {"measurement": "inhibition at 10 µM", "setting": "[4]; RT 1 hour, 10 min 1 μg·mL^−1 IL-8, read-out: inhibition of IL-8-induced elevation of KIM127 (extended β2 integrins)", "value": "~20", "unit": "%"}, {"measurement": "inhibition at 10 µM", "setting": "[4]; RT 1 hour, 10 min 1 μg·mL^−1 IL-8, read-out: inhibition of IL-8-induced elevation of mAb24 (high-affinity β2 integrins)", "value": "~75", "unit": "%"}]}
